Results reported in publication PMC6911684 (Bioorganic & medicinal chemistry letters, 2019).

Tests used:
GGTase I = GGTase I (Homo sapiens, UniProt P49354+P53609); assay: GGTase I in vitro enzyme assay; type: biochemical
FTase = FTase (Homo sapiens, UniProt P49354+P49356); assay: FTase in vitro enzyme assay; type: biochemical
RPMI-8226 cells [1] = assay: Cellular protein prenylation assays; type: cell-based, human
GGTase II [2] = target: T1, GGTase II (Homo sapiens, UniProt P53611+Q92696); settings: cited from earlier work
T1 sequence (Q92696 1-567): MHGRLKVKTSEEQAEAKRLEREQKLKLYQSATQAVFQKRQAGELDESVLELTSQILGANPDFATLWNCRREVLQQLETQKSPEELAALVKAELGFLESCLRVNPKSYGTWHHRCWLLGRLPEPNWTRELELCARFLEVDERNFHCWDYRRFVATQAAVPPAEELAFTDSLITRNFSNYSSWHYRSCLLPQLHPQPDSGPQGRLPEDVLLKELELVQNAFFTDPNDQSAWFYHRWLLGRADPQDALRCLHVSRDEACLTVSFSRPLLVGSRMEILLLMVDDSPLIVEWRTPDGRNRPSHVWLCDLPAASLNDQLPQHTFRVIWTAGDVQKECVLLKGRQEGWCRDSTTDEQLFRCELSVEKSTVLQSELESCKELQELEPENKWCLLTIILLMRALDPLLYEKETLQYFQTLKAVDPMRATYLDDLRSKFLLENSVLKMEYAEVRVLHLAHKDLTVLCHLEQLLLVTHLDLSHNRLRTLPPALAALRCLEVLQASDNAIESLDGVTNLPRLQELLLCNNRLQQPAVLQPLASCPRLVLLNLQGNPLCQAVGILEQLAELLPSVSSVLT
T1 sequence (P53611 1-331): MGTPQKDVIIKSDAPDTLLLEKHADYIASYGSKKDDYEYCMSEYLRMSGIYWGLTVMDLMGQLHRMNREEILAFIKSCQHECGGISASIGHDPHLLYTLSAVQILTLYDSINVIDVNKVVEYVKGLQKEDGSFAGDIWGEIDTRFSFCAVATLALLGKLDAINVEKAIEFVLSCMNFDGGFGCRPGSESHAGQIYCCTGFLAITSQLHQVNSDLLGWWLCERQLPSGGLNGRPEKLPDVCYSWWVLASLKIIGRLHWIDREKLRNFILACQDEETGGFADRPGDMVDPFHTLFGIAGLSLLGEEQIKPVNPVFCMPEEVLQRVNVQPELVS

GGTase II [3] = target: T1, GGTase II; assay: GGTase II in vitro enzyme assay; type: biochemical
myeloma cells = settings: cited from earlier work
FDPS = target: T2, FDPS (Homo sapiens, UniProt P14324); assay: FDPS in vitro enzyme assay; type: biochemical; settings: ratio of GGDPS and FDPS IC50
T2 sequence (P14324 1-419): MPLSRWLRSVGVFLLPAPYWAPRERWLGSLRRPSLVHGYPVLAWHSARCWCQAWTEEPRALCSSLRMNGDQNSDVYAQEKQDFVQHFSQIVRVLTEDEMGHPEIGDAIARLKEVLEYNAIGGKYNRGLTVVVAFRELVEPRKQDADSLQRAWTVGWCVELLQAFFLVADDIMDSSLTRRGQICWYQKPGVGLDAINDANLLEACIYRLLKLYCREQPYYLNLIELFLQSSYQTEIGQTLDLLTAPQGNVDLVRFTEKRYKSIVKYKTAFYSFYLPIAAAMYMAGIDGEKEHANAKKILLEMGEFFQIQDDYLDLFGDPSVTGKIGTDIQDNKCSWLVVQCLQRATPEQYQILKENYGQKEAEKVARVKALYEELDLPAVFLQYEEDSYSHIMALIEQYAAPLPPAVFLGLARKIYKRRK

RPMI-8226 cells [4] = settings: HMG-CoA reductase inhibitor, 10 μM in Figure 2; cited from earlier work
[5] = RPMI-8226 cells, 48 hours, immunoblot

CC(Cn1cnc2ccccc21)(C(=O)O)P(=O)(O)O (centres unmarked) [Compound 14]
IC50 (GGTase I): > 1000 µM | IC50 (FTase): > 1000 µM

O=P(O)(O)C(Cn1cnc2cc(F)c(F)cc21)P(=O)(O)O [Compound 19]
Concentration for cellular activity relative to parent compound 17 (RPMI-8226 cells [1]; higher concentration than compound 17): 20 fold

O=C(O)C(O)(Cc1cnc2ccccn12)P(=O)(O)O (single isomer, unassigned; (+)) [(+)-enantiomer of 3-IPEHPC]
Activity relative to the (−)-enantiomer (GGTase II [2]; more active than (−)-enantiomer): ~ 60 fold

Cc1cc2ncn(CC(P(=O)(O)O)P(=O)(O)O)c2cc1C [Compound 20]
IC50 (GGTase I): > 1000 µM | IC50 (FTase): > 1000 µM | Impairment of protein prenylation in cells (RPMI-8226 cells [1]; RPMI-8226 cells, 48 hours): no detectable impairment of protein prenylation

O=C(O)C(Cn1cnc2cc(F)c(F)cc21)P(=O)(O)O (centres unmarked) [Compound 15]
IC50 (GGTase II [3]): > 1000 µM

O=P(O)(O)C(Cn1cnc2ccccc21)P(=O)(O)O [Compound 17]
IC50 (GGTase I): > 1000 µM | IC50 (GGTase II [3]): > 1000 µM | Impairment of protein prenylation in cells (RPMI-8226 cells [1]; RPMI-8226 cells, 48 hours): globally disrupts protein prenylation | Impairment of protein prenylation in combination with lovastatin (RPMI-8226 cells [1]; co-incubation with lovastatin 0.5 μM, RPMI-8226 cells, 48 hours): enhanced the impairment of protein prenylation

O=C(O)C(Cn1cnc2ccccc21)P(=O)(O)O (centres unmarked) [Compound 13]
IC50 (GGTase I): > 1000 µM | Intracellular light chain levels (RPMI-8226 cells [1]; RPMI-8226 cells, 48 hours, ELISA): increase | Membrane-bound Rab6 levels (RPMI-8226 cells [1]; RPMI-8226 cells, 48 hours, detergent fraction, immunoblot): decrease | Disruption of H-Ras prenylation (representative farnesylated protein) (RPMI-8226 cells [1]; [5]): did not cause disruption | Disruption of Rap1a prenylation (representative substrate for GGTase I) (RPMI-8226 cells [1]; [5]): did not cause disruption

O=C(O)C(O)(Cc1cccnc1)P(=O)(O)O (centres unmarked) [Compound 3-PEHPC]
Concentration required to yield cellular effects (myeloma cells): > 5 mM

CC(Cn1cnc2ccccc21)(P(=O)(O)O)P(=O)(O)O [Compound 18]
IC50 (GGTase I): > 1000 µM | IC50 (FTase): > 1000 µM | Selectivity for FDPS relative to GGDPS (FDPS): >100 | IC50 (GGTase II [3]): > 1000 µM | Impairment of protein prenylation in cells (RPMI-8226 cells [1]; RPMI-8226 cells, 48 hours): no detectable impairment of protein prenylation

Cc1cc2ncn(CC(C(=O)O)P(=O)(O)O)c2cc1C (centres unmarked) [Compound 16]
IC50 (GGTase I): > 1000 µM | IC50 (FTase): > 1000 µM | IC50 (GGTase II [3]): > 1000 µM

O=C(O)C(O)(Cc1cnc2ccccn12)P(=O)(O)O (centres unmarked) [Compound 3-IPEHPC]
Potency as GGTase II inhibitor relative to 3-PEHPC (GGTase II [2]; more potent than 3-PEHPC): 25 fold

CC[C@H](C)C(=O)O[C@H]1C[C@@H](C)C=C2C=C[C@H](C)[C@H](CC[C@@H]3C[C@@H](O)CC(=O)O3)[C@H]21 [Lovastatin, reference compound]
Disruption of prenylation (positive control) (RPMI-8226 cells [4]): disrupts all prenylation | Impairment of protein prenylation in cells (RPMI-8226 cells [1]; lovastatin alone at 0.5 μM, RPMI-8226 cells, 48 hours): only minimally impairs protein prenylation
